Values quoted from earlier work in publication PMC4245168 (ACS Chemical Biology, 2014).

Tested on: parent TPR2A protein
Conditions: MEAVD versus MEEVD, ref [8]; cited from earlier work

MEAVD
ΔΔG associated with the difference between MEAVD and MEEVD binding: ~0.6 kcal/mol
